From US20210220331A1, “INHIBITORS OF IRES-MEDIATED PROTEIN SYNTHESIS” (The Regents of the University of California, priority 2016, published 2021)
Where two headings read alike, the source gives them in different places.

What was measured:
[1] = test system: cyclin D1 or c-MYC mRNA association with eIF-4E; experiment: eIF-4E immunoprecipitation and qRT-PCR of bound RNA; format: cell-based; settings: LN229 cells, 50 nM
Experimental: For immunopurification of eIF4E and bound RNA (21), cells were lysed in buffer containing 50 mM Tris-HCl (pH 7.4), 300 mM NaCl, 0.5% NP-40, 10 mM NaF, 1 mM sodium orthovanidate, 1 mM PMSF, 1.5% aprotinin and SUPERase-IN (ThermoFisher Scientific), 0.025 units/ml, using a Dounce homogenizer at 4° C. Extracts were cleared by centrifugation and immunoprecipitated with eIF4E or control IgG. Beads were washed and obtained RNA was subjected to quantitative RTPCR. For quantitative RT-PCR, extraction of RNA was performed using Trizol (ThermoFisher). Total RNA was then quantified and integrity assessed using an Agilent 2100 Bioanalyzer (Agilent Technology). Total RNA was reverse transcribed with random primers using the RETROscript Kit from ThermoFisher. SYBR Green quantitative PCR was performed in triplicate in 96-well optical plates on an ABI Prism 7000 Sequence Detection System (Life Technologies) according to the manufacturer's instructions. Primer sequences for CCND1, c-MYC and actin are available upon request. […]
(B) Schematic diagrams of the dicistronic constructs used in this study. […] Input and bound fractions were analyzed by immunoblotting using hnRNP A1 antibodies. […] Bound CCND1 or c-MYC RNAs were detected via RT-PCR. […]

[2] = test system: cyclin D1 and c-MYC protein; experiment: Western blot of cyclin D1 and c-MYC protein levels in GBM cell lines; format: cell-based; settings: LN229 and SF763 cells, 24 h
Experimental: Western blot and quantitative RT-PCR analyses were performed as previously described (19). For Western blotting, cells or tissues were lysed in RIPA (lysis) buffer containing protease inhibitor cocktail and phosSTOP phosphatase inhibitor cocktail (Roche) and extracts resolved by SDSPAGE. Proteins were transferred to PVDF membranes and incubated with the indicated antibodies. For IRES reporter assays, the indicated mRNA reporters were cotransfected into cells with pSVβ-galactosidase to normalize for transfection efficiency as described previously (16). Cells were harvested 18 h following transfection and Renilla, firefly and β-galactosidase activities determined using the Dual-Glo Luciferase and β-galactosidase assay systems (Promega).
(B) Schematic diagrams of the dicistronic constructs used in this study. Constructs used are pRF, pRCD1F, which contains the human cyclin D1 IRES, pRmycF, containing the human c-myc IRES, pRp27F, containing the human p27Kip1 IRES and pRECMVF, containing the IRES from encephalomyocarditis virus. (C) Relative Renilla and firefly luciferase activities obtained from LN229 GBM cells transfected with the indicated constructs in the absence or presence of the inhibitor C11. […] Input and bound fractions were analyzed by immunoblotting using hnRNP A1 antibodies. […] Bound CCND1 or c-MYC RNAs were detected via RT-PCR. […]

[3] = test system: normal mature human neurons; experiment: In vitro cytotoxicity in human neurons (trypan blue exclusion); format: cell-based; set-up: dose or concentration left out as unconfirmed
Experimental: Within the series B and C analogs, IRES-J008, with a 4-methoxyphenyl substituent in place of the 2,4-dimethoxybenzyl unit, and to a lesser degree, IRES-J009, with an N1-methyluracil unit in place of the dichloromaleimide unit, inhibited cyclin D1 and c-MYC PP242-induced IRES activity. […] The in vitro cytotoxicities of these three analogs relative to C11 in human neurons were also determined. […] The reduced toxicity of the IRES-J007 versus C11 might possible be due to the lack of the quite reactive dichloromaleimide unit present in C11 which is absent in IRES-J007, or may be due to other factors.

Pharmacokinetics in mice = format: in vivo
Experimental: The pharmacokinetic properties of IRES-J007 in mice were determined. […] IRES-J007 was ˜50% bioavailable following oral delivery with a serum half-life of approximately 30 hours.

Structure (SMILES) | cyclin D1 or c-MYC mRNA association with eIF-4E [1] | cyclin D1 and c-MYC protein levels [2] | cytotoxic effects on normal neurons [3] | AUC (Pharmacokinetics in mice; mouse, plasma, 20 mg/kg, PO) [µg·h/mL] | Cmax (Pharmacokinetics in mice; mouse, plasma, 20 mg/kg, PO) [µg/mL] | Tmax (Pharmacokinetics in mice; mouse, plasma, 20 mg/kg, PO) [h] | half-life (Pharmacokinetics in mice; mouse, plasma, 20 mg/kg, PO, read-out: Half-life (T1/2 K10) (converted)) [h] | AUC (Pharmacokinetics in mice; mouse, plasma, IV) [µg·h/mL] | Cmax (Pharmacokinetics in mice; mouse, plasma, IV) [µg/mL] | Tmax (Pharmacokinetics in mice; mouse, plasma, IV) [h] | clearance (Pharmacokinetics in mice; mouse, plasma, IV) [mL/min/kg] | half-life (Pharmacokinetics in mice; mouse, plasma, IV, read-out: Half-life (T1/2 b) (converted)) [h] | bioavailability (Pharmacokinetics in mice; mouse, plasma, iv, read-out: Relative Bioavailability) [%] | bioavailability (Pharmacokinetics in mice; mouse, plasma, po, 20 mg/kg, PO, calculated based on AUC, read-out: Relative Bioavailability) [%] | bioavailability (Pharmacokinetics in mice; mouse, plasma, po, 20 mg/kg, oral gavage 20 mg/kg, read-out: bioavailability following oral delivery) [%] | half-life (Pharmacokinetics in mice; mouse, serum, oral delivery 20 mg/kg, read-out: serum half-life (converted)) [h] | trough levels (Pharmacokinetics in mice; single 20 mg/kg dose)
COc1ccc(CN2C(=O)C(Cl)=C(Cl)C2=O)c(OC)c1 [Compound C11, reference compound] | did not affect | markedly reduced | – | – | – | – | – | – | – | – | – | – | – | – | – | – | –
COc1ccc(CN2C(=O)c3ccccc3C2=O)c(OC)c1 [IRES-J007, 2-((2,4-Dimethoxyphenyl)methyl)isoindoline-1,3-dione] | – | – | no significant cytotoxic effects | 759 | 17.2 | 7.2 | 27.4 | 1290 | 284 | 0.05 | 152 | 13.6 | 100 | 40.1 | ~50 | ~30 | exceeded concentrations expected to block hnRNP A1 IRES activity
